Test results reported in US20250171431A1, “HETEROCYCLIC INHIBITORS OF IGF-1R FOR TREATMENT OF DISEASE” (HORIZON THERAPEUTICS IRELAND DAC, priority 2023, published 2025).

Molecular target: IGF-1R (Homo sapiens (Human), UniProt P08069)
Assay: Example B-1: IGF-1R Assay (PC3 cells, IGF1 stimulation, AlphaLISA)
Format: cell-based
Settings: 200 ng/mL IGF1 stimulation, read-out: Biological Activity against IGF-1R IC50
Summary of the method: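 PC3 cells were serum-starved 2 h, treated with serially diluted compounds for 2 h, then stimulated with IGF1 (200 ng/mL final) for 30 min. Lysates were read by AlphaLISA; % inhibition was calculated relative to vehicle and EC80 controls, with IC50 values binned into ranges.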

Sequence of IGF-1R (P08069 31-1367): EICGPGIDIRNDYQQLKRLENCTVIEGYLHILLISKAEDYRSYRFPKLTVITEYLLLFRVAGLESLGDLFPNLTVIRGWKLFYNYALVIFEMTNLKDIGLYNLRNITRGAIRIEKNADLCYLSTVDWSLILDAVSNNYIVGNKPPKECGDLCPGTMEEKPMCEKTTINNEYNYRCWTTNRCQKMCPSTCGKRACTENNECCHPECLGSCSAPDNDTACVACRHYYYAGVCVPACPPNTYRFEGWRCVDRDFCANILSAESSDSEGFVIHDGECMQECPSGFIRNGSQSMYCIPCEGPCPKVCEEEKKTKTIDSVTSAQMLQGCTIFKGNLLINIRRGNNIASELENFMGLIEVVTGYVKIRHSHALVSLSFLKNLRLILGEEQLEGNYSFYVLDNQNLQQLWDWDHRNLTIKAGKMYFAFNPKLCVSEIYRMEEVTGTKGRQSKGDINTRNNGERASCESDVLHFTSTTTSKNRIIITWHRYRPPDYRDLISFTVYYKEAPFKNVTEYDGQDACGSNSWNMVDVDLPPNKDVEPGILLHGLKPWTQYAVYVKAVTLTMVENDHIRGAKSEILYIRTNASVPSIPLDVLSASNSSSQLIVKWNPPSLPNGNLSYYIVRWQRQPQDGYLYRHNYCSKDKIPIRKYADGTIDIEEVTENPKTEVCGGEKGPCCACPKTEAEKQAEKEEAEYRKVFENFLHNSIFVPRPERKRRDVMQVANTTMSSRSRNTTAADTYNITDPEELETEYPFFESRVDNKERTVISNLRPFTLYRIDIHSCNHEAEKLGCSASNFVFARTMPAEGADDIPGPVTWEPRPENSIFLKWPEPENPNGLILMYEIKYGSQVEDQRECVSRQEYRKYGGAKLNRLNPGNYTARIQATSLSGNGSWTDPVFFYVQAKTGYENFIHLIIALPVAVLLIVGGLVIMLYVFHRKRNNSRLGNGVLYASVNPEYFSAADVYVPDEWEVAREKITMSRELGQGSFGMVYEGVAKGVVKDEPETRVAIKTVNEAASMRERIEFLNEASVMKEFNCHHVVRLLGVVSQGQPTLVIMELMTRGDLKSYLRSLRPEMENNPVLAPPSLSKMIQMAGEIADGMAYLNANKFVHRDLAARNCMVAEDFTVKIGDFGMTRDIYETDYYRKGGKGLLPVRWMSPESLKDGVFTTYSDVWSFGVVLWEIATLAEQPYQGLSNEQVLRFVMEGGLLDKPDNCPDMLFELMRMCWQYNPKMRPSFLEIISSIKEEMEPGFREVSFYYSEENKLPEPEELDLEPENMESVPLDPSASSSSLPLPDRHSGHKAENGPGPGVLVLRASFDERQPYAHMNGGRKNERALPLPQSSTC

Row | Structure (SMILES) | IC50 [nM]
1 | COc1cc(Nc2nccc(Nc3ccc4c(c3)OCCO4)n2)ccc1OCCCN1CCCCC1 [Compound 376, 4-(2,3-dihydro-1,4-benzodioxin-6-ylamino)-2-[3-methoxy-4-(3-piperidinopropoxy)phenylamino]pyrimidine] | ≤ 500
2 | COc1cc(Nc2nccc(Nc3cc(Cl)cnc3C(N)=O)n2)ccc1O[C@H]1C[C@@H](N(C)C)C1 [Compound 198, 5-chloro-3-(2-{3-methoxy-4-[(1s,3s)-3-(dimethylamino)cyclobutoxy]phenylamino}-4-pyrimidinylamino)-2-pyridinecarboxamide] | ≤ 500
3 | CCc1ccc2cc(Nc3ccnc(Nc4ccc(OCCCN5CCOCC5)cc4)n3)cnc2c1 [Compound 397, 4-(7-ethyl-3-quinolylamino)-2-[p-(3-morpholinopropoxy)phenylamino]pyrimidine] | 2000 to 10000
4 | COc1cc(Nc2nccc(Nc3cnc4cnc(Cl)cc4c3)n2)ccc1O[C@H]1C[C@@H](N(C)C)C1 [Compound 87, 4-(6-chloro-1,7-diaza-3-naphthylamino)-2-{3-methoxy-4-[(1s,3s)-3-(dimethylamino)cyclobutoxy]phenylamino}pyrimidine] | ≤ 500
5 | COc1cc(Nc2nccc(Nc3cnc4c(c3)CCC3(CCCC3)C4)n2)ccc1O[C@H]1C[C@H](N(C)C)C1 [Compound 78, 4-(6′,8′-dihydro-5′H-spiro[cyclopentane-1,7′-quinolin]-3′-ylamino)-2-{3-methoxy-4-[(1r,3r)-3-(dimethylamino)cyclobutoxy]phenylamino}pyrimidine] | ≤ 500
6 | COc1cc(Nc2nccc(Nc3cnc4c(F)cc(Cl)cc4c3)n2)ccc1O[C@H]1C[C@@H](N(C)C)C1 [Compound 114, 4-(6-chloro-8-fluoro-3-quinolylamino)-2-{3-methoxy-4-[(1s,3s)-3-(dimethylamino)cyclobutoxy]phenylamino}pyrimidine] | ≤ 500
7 | COc1cc(Nc2nccc(Nc3cc4ccc(F)c(F)c4[nH]c3=O)n2)ccc1O[C@H]1C[C@@H](N(C)C)C1 [Compound 117, 7,8-difluoro-3-(2-{3-methoxy-4-[(1s,3s)-3-(dimethylamino)cyclobutoxy]phenyl-amino}-4-pyrimidinylamino)-1,2-dihydro-2-quinolinone] | ≤ 500
8 | COc1cc(Nc2nccc(Nc3cc4ccccc4nc3C(N)=O)n2)cnc1O[C@H]1C[C@@H](N(C)C)C1 [Compound 172, 3-((2-((6-((1s,3s)-3-(dimethylamino)cyclobutoxy)-5-methoxypyridin-3-yl)amino)pyrimidin-4-yl)amino)quinoline-2-carboxamide] | ≤ 500
9 | COc1cc(Nc2nccc(Nc3cnc4c(c3)CCCO4)n2)ccc1O[C@H]1C[C@H](N2CCOCC2)C1 [Compound 360, 4-(3,4-dihydro-2H-1-oxa-8-azanaphth-6-ylamino)-2-{3-methoxy-4-[(1r,3r)-3-morpholinocyclobutoxy]phenylamino}pyrimidine] | ≤ 500
10 | COc1cc(Nc2nccc(Nc3cnc4c(ccn4C)c3)n2)ccc1O[C@H]1C[C@@H](N(C)C)C1 [Compound 282, 2-{3-methoxy-4-[(1s,3s)-3-(dimethylamino)cyclobutoxy]phenylamino}-4-(1-methyl-1H-1,7-diazainden-5-ylamino)pyrimidine] | ≤ 500
11 | O=S1(=O)CCN(CCCOc2ccc(Nc3nccc(Nc4cnc5cc(Cl)ccc5c4)n3)cc2)CC1 [Compound 399, 4-(3-{p-[4-(7-chloro-3-quinolylamino)-2-pyrimidinylamino]phenoxy}propyl)-1λ^6,4-thiazinane-1,1-dione] | 2000 to 10000
12 | COc1cc(Nc2ncc(F)c(Nc3cc4cccc(F)c4[nH]c3=O)n2)ccc1O[C@H]1C[C@@H](N(C)C)C1 [Compound 242, 8-fluoro-3-(5-fluoro-2-{3-methoxy-4-[(1s,3s)-3-(dimethylamino)cyclobutoxy]phenyl-amino}-4-pyrimidinylamino)-1,2-dihydro-2-quinolinone] | 2000 to 10000
13 | COc1cc(O[C@H]2C[C@@H](N(C)C)C2)ccc1Nc1nccc(Nc2cnc3ccccc3c2)n1 [Compound 19, 2-{2-methoxy-4-[(1s,3s)-3-(dimethylamino)cyclobutoxy]phenylamino}-4-(3-quinolylamino)pyrimidine] | ≤ 500
14 | COc1cc(Nc2nccc(Nc3cnc4cc(C(F)(F)F)ccc4c3)n2)ccc1O[C@H]1C[C@H](N(C)C)C1 [Compound 341, 2-{3-methoxy-4-[(1r,3r)-3-(dimethylamino)cyclobutoxy]phenylamino}-4-[7-(trifluoromethyl)-3-quinolylamino]pyrimidine] | 500 to 2000
15 | CN(C)[C@H]1C[C@@H](Oc2ccc(Nc3nccc(Nc4cnc5c(c4)OCCO5)n3)cc2)C1 [Compound 260, 4-(2,3-dihydro-1,4-dioxa-5-aza-7-naphthylamino)-2-{p-[(1s,3s)-3-(dimethylamino)cyclobutoxy]phenylamino}pyrimidine] | ≤ 500
16 | Fc1cnc(Nc2ccc(OCCCN3CCCCC3)cc2)nc1Nc1cnc2ccccc2c1 [Compound 432, 5-fluoro-2-[p-(3-piperidinopropoxy)phenylamino]-4-(3-quinolylamino)pyrimidine] | ≤ 500
17 | COc1cc(Nc2nccc(Nc3cnc4cc(Cl)ccc4c3)n2)ccc1O[C@H]1C[C@@H](N(C)C)C1 [Compound 342, 4-(7-chloro-3-quinolylamino)-2-{3-methoxy-4-[(1s,3s)-3-(dimethylamino)cyclobutoxy]phenylamino}pyrimidine] | ≤ 500
18 | COc1cc(Nc2nccc(Nc3cnc4c(c3)OCC(C)(C)O4)n2)cnc1O[C@H]1C[C@@H](N(C)C)C1 [Compound 271, 4-(3,3-dimethyl-2,3-dihydro-1,4-dioxa-5-aza-7-naphthylamino)-2-{5-methoxy-6-[(1s,3s)-3-(dimethylamino)cyclobutoxy]-3-pyridylamino}pyrimidine] | ≤ 500
19 | COc1cc(Nc2nccc(Nc3cnc4cc(F)cnc4c3)n2)cnc1O[C@H]1C[C@@H](N(C)C)C1 [Compound 85, 4-(7-fluoro-1,5-diaza-3-naphthylamino)-2-{5-methoxy-6-[(1s,3s)-3-(dimethylamino)cyclobutoxy]-3-pyridylamino}pyrimidine] | 500 to 2000

Second part, the compound after the results:

Row | IC50 [nM] | Structure (SMILES)
20 | ≤ 500 | COc1cc(Nc2nccc(Nc3cnc4c(C(F)(F)F)cccc4c3)n2)ccc1OCCCN1CCCCC1 [Compound 5, 2-[3-methoxy-4-(3-piperidinopropoxy)phenylamino]-4-[8-(trifluoromethyl)-3-quinolylamino]pyrimidine]
21 | ≤ 500 | COc1cc(Nc2nccc(Nc3cc(F)c4ncccc4c3)n2)ccc1OCCCN1CCCCC1 [Compound 447, 4-(8-fluoro-6-quinolylamino)-2-[3-methoxy-4-(3-piperidinopropoxy)phenylamino] pyrimidine]
22 | ≤ 500 | COc1cc(Nc2nccc(Nc3cnc4c(c3)C3CCC(C4)C3)n2)ccc1OCCCN1CCCCC1 (stereo not drawn) [Compound 70, 4-{6-azatricyclo[7.2.1.0^2,7]dodeca-2(7),3,5-trien-4-ylamino}-2-[3-methoxy-4-(3-piperidinopropoxy)phenylamino] pyrimidine]
23 | 500 to 2000 | COc1cccc2cc(Nc3ccnc(Nc4ccc(OCCCN5CCOCC5)cc4)n3)cnc12 [Compound 417, 4-(8-methoxy-3-quinolylamino)-2-[p-(3-morpholinopropoxy)phenylamino]pyrimidine]
24 | ≤ 500 | COc1cc(Nc2nccc(Nc3cnc4ccccc4c3)n2)ccc1O[C@H]1CC[C@H](N2CCOCC2)CC1 [Compound 16, 2-{3-methoxy-4-[(1r,4r)-4-morpholinocyclohexyloxy]phenylamino}-4-(3-quinolylamino)pyrimidine]
25 | ≤ 500 | CN(C)CC1COc2cc(Nc3nccc(Nc4cc5cccc(F)c5[nH]c4=O)n3)ccc2O1 (stereo not drawn) [Compound 205, 3-(2-{2-[(dimethylamino)methyl]-2,3-dihydro-1,4-benzodioxin-6-ylamino}-4-pyrimidinylamino)-8-fluoro-1,2-dihydro-2-quinolinone]
26 | ≤ 500 | COc1cc(Nc2nccc(Nc3cnc4c(c3)CCCC4(C)C)n2)ccc1OCCCN1CCCCC1 [Compound 73, 4-(8,8-dimethyl-5,6,7,8-tetrahydro-3-quinolylamino)-2-[3-methoxy-4-(3-piperidinopropoxy)phenylamino] pyrimidine]
27 | 500 to 2000 | O=S1(=O)CCN([C@H]2C[C@H](Oc3ccc(Nc4nccc(Nc5cnc6c(Cl)cccc6c5)n4)cc3)C2)CC1 [Compound 349]
28 | ≤ 500 | COc1cc(N2CCN(C)CC2)ncc1Nc1nccc(Nc2cnc3ccc(Cl)cc3c2)n1 [Compound 486, 4-(6-chloro-3-quinolylamino)-2-[4-methoxy-6-(4-methyl-1-piperazinyl)-3-pyridylamino]pyrimidine]
29 | ≤ 500 | COc1cc(Nc2nccc(Nc3cc4cccc(F)c4nc3O)n2)cnc1OC1CCNCC1 [Compound 261, 8-fluoro-3-{2-[5-methoxy-6-(4-piperidyloxy)-3-pyridylamino]-4-pyrimidinylamino}-2-quinolinol]
30 | ≤ 500 | O=S1(=O)CCN(CCCOc2ccc(Nc3nccc(Nc4cnc5c(Cl)cccc5c4)n3)cc2)CC1 [Compound 398, 4-(3-{p-[4-(8-chloro-3-quinolylamino)-2-pyrimidinylamino]phenoxy}propyl)-1λ^6,4-thiazinane-1,1-dione]
31 | ≤ 500 | CN(C)[C@H]1CC[C@@H](Oc2ccc(Nc3nccc(Nc4cnc5ccccc5c4)n3)cc2)CC1 [Compound 40, 4-(3-quinolylamino)-2-{p-[(1s,4s)-4-(dimethylamino)cyclohexyloxy]phenylamino}pyrimidine]
32 | ≤ 500 | O=c1[nH]c2ccccc2cc1Nc1ccnc(Nc2ccc(OCCCN3CCOCC3)cc2)n1 [Compound 251, 3-{2-[p-(3-morpholinopropoxy)phenylamino]-4-pyrimidinylamino}-2(1H)-quinolinone]
33 | 500 to 2000 | COc1cc(Nc2nccc(Nc3cnc4cc(F)c(F)cc4c3)n2)cnc1N1CCN(C)C(C(F)(F)F)C1 (stereo not drawn) [Compound 475, 4-(6,7-difluoro-3-quinolylamino)-2-{5-methoxy-6-[4-methyl-3-(trifluoromethyl)-1-piperazinyl]-3-pyridylamino}pyrimidine]
